The IC50 is the concentration at which inhibition is half-maximal.

This note sets out measurements from US8501754B2, “Quinazolinamide derivatives” (MERCK PATENT GmbH, priority 2007, dated 2013).

The assay concerns the target Recombinant human HSP90a (Homo sapiens, UniProt P07900). Briefly: radioligand filter binding test ([3H]17AAG competition) for HSP90 inhibition. The settings on record: competition with [3H]17AAG 0.08 μM, HSP90 1.5 μg/assay, 22° C., 30 min. The source says: Test Method for the Measurement of HSP90 Inhibitors
The binding of geldanamycin or 17-allylamino-17-demethoxygeldanamycin (17AAG) to HSP90 and competitive inhibition thereof can be utilized in order to determine the inhibitory activity of the compounds according to the invention (Carreras et al. 2003, Chiosis et al. 2002).
In the specific case, a radioligand filter binding test is used. The radioligand used here is tritium-labelled 17-allylaminogeldanamycin, [3H]17AAG. This filter binding test allows a targeted search for inhibitors which interfere with the ATP binding site.
Recombinant human HSP90a (E. coli expressed, 95% purity);
[3H]17AAG (17-allylaminogeldanamycin, [allylamino-2,3-^3H. Specific activity: 1.11×10^12 Bq/mmol (Moravek, MT-1717);
HEPES filter buffer (50 mM HEPES, pH 7.0, 5 mM MgCl2, BSA 0.01%) Multiscreen FB (1 μm) filter plate (Millipore, MAFBNOB 50).
The 96-well microtitre filter plates are firstly irrigated and coated with 0.1% of polyethylenimine.
The test is carried out under the following conditions:
Reaction temperature 22° C.
Reaction time: 30 min., shaking at 800 rpm
50 mM HEPES HCl, pH 7.0, 5 mM MgCl2, 0.01% (w/v) of BSA
At the end of the reaction, the supernatant in the filter plate is removed by suction with the aid of a vacuum manifold (Multiscreen Separation System, Millipore), and the filter is washed twice.
The filter plates are then measured in a beta counter (Microbeta, Wallac) with scintillator (Microscint 20, Packard).
“% of control” is determined from the “counts per minutes” values, and the IC-50 value of a compound is calculated therefrom.
For the compound `CN1CCN(Cc2cc(O)ccc2-c2ccc3nc(N)nc(C(=O)N4Cc5ccccc5C4)c3c2)CC1` [Compound A1002], the IC50 lay within 0.01 to 1 µM.

Regarding `CCc1ccc2nc(N)nc(C(=O)N3Cc4ccccc4C3)c2c1` [Compound A97, 2-Amino-6-ethyl-4-(1,3-dihydroisoindol-2-ylcarbonyl)quinazoline], the IC50 fell in the range of 0.01 to 1 µM.

Take `N#CCc1cccc(-c2ccc3nc(N)nc(C(=O)N4Cc5ccccc5C4)c3c2)c1` [Compound A919, 2-Amino-6-(3-cyanomethylphenyl)-4-(1,3-dihydroisoindol-2-ylcarbonyl)quinazoline]: the IC50 lay within 0.01 to 1 µM.

Turning to `CC(C)N(C)C(=O)c1nc(N)nc2ccccc12` [Compound A8, 2-Amino-4-isopropylmethylcarbamoylquinazoline], the IC50 was more than 10 µM.

`CCc1ccc2nc(N)nc(C(=O)N3Cc4ccc(Br)cc4C3)c2c1` [Compound A96, 2-Amino-6-ethyl-4-(5-bromo-1,3-dihydroisoindol-2-ylcarbonyl)quinazoline]: the IC50 fell in the range of 0.01 to 1 µM.

With `Nc1nc(C(=O)Nc2cccc3c2CCCC3)c2ccccc2n1` [Compound A50], the IC50 is 1 to 10 µM.

Turning to `C#CCCNC(=O)c1nc(N)nc2ccccc12` [Compound A19, 2-Amino-4-propargylmethylcarbamoylquinazoline], the IC50 is more than 10 µM.

On to `CN(C)CCOc1ccccc1-c1ccc2nc(N)nc(C(=O)N3Cc4ccccc4C3)c2c1` [Compound A986, {2-amino-6-[2-(2-dimethylaminoethoxy)phenyl]quinazolin-4-yl}-(1,3-dihydroisoindol-2-yl)methanone], for which the IC50 is 0.01 to 1 µM.

As for `NCc1ccccc1-c1ccc2nc(N)nc(C(=O)N3Cc4ccccc4C3)c2c1` [Compound A936], the IC50 was 1 to 10 µM.

Regarding `Nc1nc(C(=O)N2Cc3ccccc3C2)c2cc(Oc3ccccc3)ccc2n1` [Compound A946], the IC50 is 0.01 to 1 µM.

Consider `Nc1nc(C(=O)N2Cc3ccccc3C2)c2cc(-c3ccccc3C(F)(F)F)ccc2n1` [Compound A262], for which the IC50 lay within 0.01 to 1 µM.

On to `Nc1nc(C(=O)N2Cc3ccccc3C2)c2cc(C#CCO)ccc2n1` [Compound A964, 2-amino-6-(3-hydroxyprop-1-ynyl)-4-(1,3-dihydroisoindol-2-ylcarbonyl)quinazoline], for which the IC50 fell in the range of 0.01 to 1 µM.

Consider `Nc1nc(C(=O)N2Cc3ccccc3C2)c2cc(NCc3ccccc3)ccc2n1` [Compound A950], for which the 50% inhibitory concentration (IC50) fell in the range of 1 to 10 µM.

In the case of `COc1ccc(Cl)cc1CN(C)C(=O)c1nc(N)nc2ccccc12` [Compound A72, 2-Amino-4-[(3-chloro-6-methoxybenzyl)methylcarbamoyl]quinazoline], the IC50 is more than 10 µM.

With `N#CCc1ccccc1-c1ccc2nc(N)nc(C(=O)N3Cc4ccccc4C3)c2c1` [Compound A344a], the IC50 was in the range of 0.01 to 1 µM.

Consider `COCCNCc1ccccc1-c1ccc2nc(N)nc(C(=O)N3Cc4ccccc4C3)c2c1` [Compound A976], for which the half-maximal inhibitory concentration (IC50) is 0.01 to 1 µM.

As for `CCN(CC)C(=O)c1nc(N)nc2ccc(-c3ccccc3)cc12` [Compound A138, 2-Amino-6-phenyl-4-diethylcarbamoylquinazoline], the IC50 lay within 1 to 10 µM.

For the compound `CCc1ccc2nc(N)nc(C(=O)N3Cc4ccc(O)cc4C3)c2c1` [Compound A95, 2-Amino-6-ethyl-4-(5-hydroxy-1,3-dihydroisoindol-2-ylcarbonyl)quinazoline], the IC50 lay within 1 to 10 µM.

As for `CN(C)CCCNc1ccc2nc(N)nc(C(=O)N3Cc4ccccc4C3)c2c1` [Compound A940], the IC50 is more than 10 µM.

On to `Nc1nc(C(=O)N2Cc3ccccc3C2)c2cc(-c3ccccc3S(=O)(=O)N3CCNCC3)ccc2n1` [Compound A981], for which the IC50 is 0.01 to 1 µM.

Turning to `Nc1nc(C(=O)Nc2ccccc2-c2ccccc2)c2ccccc2n1` [Compound A46], the IC50 was 1 to 10 µM.

As for `Nc1nc(C(=O)N2Cc3ccccc3C2)c2cc(-c3cccc(O)c3)ccc2n1` [Compound A925, 2-Amino-6-(3-hydroxyphenyl)-4-(1,3-dihydroisoindol-2-ylcarbonyl)quinazoline], the IC50 lay within 1 to 10 µM.

As for `CCc1ccccc1-c1ccc2nc(N)nc(C(=O)N3Cc4ccccc4C3)c2c1` [Compound A924, 2-Amino-6-(2-ethylphenyl)-4-(1,3-dihydroisoindol-2-ylcarbonyl)quinazoline], the IC50 fell in the range of 0.01 to 1 µM.

Regarding `Nc1nc(C(=O)N2Cc3ccccc3C2)c2cc(-c3ccccc3OC(F)(F)F)ccc2n1` [Compound A240], the IC50 was 0.01 to 1 µM.

Consider “2-Amino-4-propylethylcarbamoylquinazoline [Compound A11]”, for which the IC50 was in the range of 1 to 10 µM.

As for `CNCc1ccccc1-c1ccc2nc(N)nc(C(=O)N3Cc4ccccc4C3)c2c1` [Compound A933], the IC50 is 0.01 to 1 µM.

`CCN(C)C(=O)c1nc(N)nc2ccccc12` [Compound A6, 2-Amino-4-ethylmethylcarbamoylquinazoline]: the IC50 was more than 10 µM.

For `CN(Cc1ccc(F)cc1)C(=O)c1nc(N)nc2ccccc12` [Compound A73, 2-Amino-4-[(4-fluorobenzyl)methylcarbamoyl]quinazoline], the IC50 is more than 10 µM.

Consider `Nc1nc(C(=O)Nc2cccc3cccnc23)c2ccccc2n1` [Compound A48], for which the IC50 is 1 to 10 µM.

As for `Nc1nc(C(=O)N2Cc3ccccc3C2)c2cc(-c3ccccc3CN3CCNCC3)ccc2n1` [Compound A971], the IC50 was in the range of 0.01 to 1 µM.

Turning to `Nc1nc(C(=O)N2Cc3ccccc3C2)c2cc(-c3cc4ccccc4o3)ccc2n1` [Compound A921, 2-Amino-6-(benzofuran-2-yl)-4-(1,3-dihydroisoindol-2-ylcarbonyl)quinazoline], the IC50 is 1 to 10 µM.

On to `Nc1nc(C(=O)N2Cc3ccccc3C2)c2cc(-c3ccccc3CNC3CCC(O)CC3)ccc2n1` (stereo not drawn) [Compound A977], for which the IC50 was in the range of 1 to 10 µM.

With `Nc1nc(C(=O)N2Cc3ccccc3C2)c2cc(-c3ccc(O)cc3CO)ccc2n1` [Compound A1006], the IC50 was in the range of 0.01 to 1 µM.

With `Nc1nc(C(=O)N2Cc3ccccc3C2)c2cc(-c3ccccc3CNCCO)ccc2n1` [Compound A972], the IC50 was 0.01 to 1 µM.

`CCN(CC)C(=O)c1nc(N)nc2ccccc12` [Compound A7, 2-Amino-4-diethylcarbamoylquinazoline]: the IC50 is more than 10 µM.

`Nc1nc(C(=O)N2Cc3ccccc3C2)c2cc(Br)ccc2n1` [Compound A125, 2-Amino-6-bromo-4-(1,3-dihydroisoindol-2-ylcarbonyl)quinazoline]: the IC50 lay within 1 to 10 µM.

Take `CC(C)c1ccc2nc(N)nc(C(=O)N3Cc4ccc(Br)cc4C3)c2c1` [Compound A117, 2-Amino-6-isopropyl-4-(5-bromo-1,3-dihydroisoindol-2-ylcarbonyl)quinazoline]: the IC50 was in the range of 1 to 10 µM.

`Nc1nc(C(=O)N2Cc3ccccc3C2)c2cc(-c3ccccc3C=O)ccc2n1` [Compound A969, 2-[2-amino-4-(1,3-dihydroisoindole-2-carbonyl)quinazolin-6-yl]benzaldehyde]: the IC50 was in the range of 0.01 to 1 µM.

In the case of `Nc1nc(C(=O)N2Cc3ccccc3C2)c2cc(-c3ccccc3C(=O)N3CCNCC3)ccc2n1` [Compound A1007], the 50% inhibitory concentration (IC50) was in the range of 0.01 to 1 µM.

For `CC(C)c1ccc2nc(N)nc(C(=O)N3Cc4ccccc4C3)c2c1` [Compound A118, 2-Amino-6-isopropyl-4-(1,3-dihydroisoindol-2-ylcarbonyl)quinazoline], the half-maximal inhibitory concentration (IC50) fell in the range of 1 to 10 µM.

As for `N#Cc1ccccc1-c1ccc2nc(N)nc(C(=O)N3Cc4ccccc4C3)c2c1` [Compound A328], the IC50 lay within 0.01 to 1 µM.

Regarding `CCCN(C)C(=O)c1nc(N)nc2ccccc12` [Compound A10, 2-Amino-4-propylmethylcarbamoylquinazoline], the half-maximal inhibitory concentration (IC50) is more than 10 µM.

With `Nc1nc(C(=O)N2Cc3ccccc3C2)c2cc(-c3ccccc3CN3CCOCC3)ccc2n1` [Compound A974], the IC50 lay within 0.01 to 1 µM.

For the compound `CCNCc1ccccc1-c1ccc2nc(N)nc(C(=O)N3Cc4ccccc4C3)c2c1` [Compound A978], the IC50 fell in the range of 0.01 to 1 µM.

On to `CCc1ccc2nc(N)nc(C(=O)N(CC)CC)c2c1` [Compound A98, 2-Amino-6-ethyl-4-diethylcarbamoylquinazoline], for which the IC50 was in the range of 1 to 10 µM.

For the compound `Nc1nc(C(=O)N2Cc3ccccc3C2)c2cc(C#CCCO)ccc2n1` [Compound A997], the IC50 was in the range of 0.01 to 1 µM.

Take `CCN(CC)C(=O)c1cccc(-c2ccc3nc(N)nc(C(=O)N4Cc5ccccc5C4)c3c2)c1` [Compound A931]: the IC50 was in the range of 0.01 to 1 µM.

Regarding `CNC(=O)c1nc(N)nc2ccccc12` [Compound A1, 2-amino-4-methylcarbamoylquinazoline], the IC50 is more than 10 µM.

In the case of `Nc1nc(C(=O)N2Cc3ccccc3C2)c2cc(-c3ccccc3O)ccc2n1` [Compound A335, [2-amino-6-(2-hydroxyphenyl)quinazolin-4-yl]-(1,3-dihydroisoindol-2-yl)methanone], the IC50 fell in the range of 0.01 to 1 µM.

Consider `NC(=O)c1ccccc1-c1ccc2nc(N)nc(C(=O)N3Cc4ccccc4C3)c2c1` [Compound A310], for which the IC50 is 0.01 to 1 µM.

For `CCNC(=O)c1ccc2nc(N)nc(C(=O)N(CC)CC)c2c1` [Compound A140, 2-Amino-6-ethylcarbamoyl-4-diethylcarbamoylquinazoline], the IC50 was more than 10 µM.
